Experimental data: BigSolDB 2.1

COc1cc(/C=C/C(=O)CC(=O)/C=C/c2ccc(O)c(OC)c2)ccc1O
solubility (mole fraction) (in DMSO, 278.15 K): 0.137
solubility (mole fraction) (in DMSO, 283.15 K): 0.16
solubility (mole fraction) (in DMSO, 288.15 K): 0.184
solubility (mole fraction) (in DMSO, 293.15 K): 0.211
solubility (mole fraction) (in DMSO, 298.15 K): 0.24
solubility (mole fraction) (in DMSO, 303.15 K): 0.271
solubility (mole fraction) (in DMSO, 308.15 K): 0.303
solubility (mole fraction) (in DMSO, 313.15 K): 0.338
solubility (mole fraction) (in DMSO, 318.15 K): 0.375
solubility (mole fraction) (in DMSO, 323.15 K): 0.413
solubility (mole fraction) (in THF, 278.15 K): 0.113
solubility (mole fraction) (in THF, 283.15 K): 0.134
solubility (mole fraction) (in THF, 288.15 K): 0.157
solubility (mole fraction) (in THF, 293.15 K): 0.183
solubility (mole fraction) (in THF, 298.15 K): 0.211
solubility (mole fraction) (in THF, 303.15 K): 0.239
solubility (mole fraction) (in THF, 308.15 K): 0.27
solubility (mole fraction) (in THF, 313.15 K): 0.302
solubility (mole fraction) (in THF, 318.15 K): 0.336
solubility (mole fraction) (in THF, 323.15 K): 0.371
solubility (mole fraction) (in acetone, 278.15 K): 0.00834
solubility (mole fraction) (in acetone, 283.15 K): 0.00986
solubility (mole fraction) (in acetone, 288.15 K): 0.0118
solubility (mole fraction) (in acetone, 293.15 K): 0.0138
solubility (mole fraction) (in acetone, 298.15 K): 0.0162
solubility (mole fraction) (in acetone, 303.15 K): 0.0189
solubility (mole fraction) (in acetone, 308.15 K): 0.022
solubility (mole fraction) (in acetone, 313.15 K): 0.0257
solubility (mole fraction) (in acetone, 318.15 K): 0.0298
solubility (mole fraction) (in acetone, 323.15 K): 0.0345
solubility (mole fraction) (in acetonitrile, 278.15 K): 0.00071
solubility (mole fraction) (in acetonitrile, 283.15 K): 0.00083
solubility (mole fraction) (in acetonitrile, 288.15 K): 0.00097
solubility (mole fraction) (in acetonitrile, 293.15 K): 0.00113
solubility (mole fraction) (in acetonitrile, 298.15 K): 0.00129
solubility (mole fraction) (in acetonitrile, 303.15 K): 0.00149
solubility (mole fraction) (in acetonitrile, 308.15 K): 0.00169
solubility (mole fraction) (in acetonitrile, 313.15 K): 0.00194
solubility (mole fraction) (in acetonitrile, 318.15 K): 0.00221
solubility (mole fraction) (in acetonitrile, 323.15 K): 0.00253
solubility (mole fraction) (in ethanol, 278.15 K): 0.00041
solubility (mole fraction) (in ethanol, 283.15 K): 0.00048
solubility (mole fraction) (in ethanol, 288.15 K): 0.00056
solubility (mole fraction) (in ethanol, 293.15 K): 0.00065
solubility (mole fraction) (in ethanol, 298.15 K): 0.00075
solubility (mole fraction) (in ethanol, 303.15 K): 0.00086
solubility (mole fraction) (in ethanol, 308.15 K): 0.00098
solubility (mole fraction) (in ethanol, 313.15 K): 0.00111
solubility (mole fraction) (in ethanol, 318.15 K): 0.00127
solubility (mole fraction) (in ethanol, 323.15 K): 0.00145
solubility (mole fraction) (in ethyl acetate, 278.15 K): 0.00176
solubility (mole fraction) (in ethyl acetate, 283.15 K): 0.00199
solubility (mole fraction) (in ethyl acetate, 288.15 K): 0.00227
solubility (mole fraction) (in ethyl acetate, 293.15 K): 0.00253
solubility (mole fraction) (in ethyl acetate, 298.15 K): 0.00285
solubility (mole fraction) (in ethyl acetate, 303.15 K): 0.00319
solubility (mole fraction) (in ethyl acetate, 308.15 K): 0.00357
solubility (mole fraction) (in ethyl acetate, 313.15 K): 0.00399
solubility (mole fraction) (in ethyl acetate, 318.15 K): 0.00447
solubility (mole fraction) (in ethyl acetate, 323.15 K): 0.00501
solubility (mole fraction) (in isopropanol, 278.15 K): 0.00156
solubility (mole fraction) (in isopropanol, 283.15 K): 0.00177
solubility (mole fraction) (in isopropanol, 288.15 K): 0.002
solubility (mole fraction) (in isopropanol, 293.15 K): 0.00226
solubility (mole fraction) (in isopropanol, 298.15 K): 0.00254
solubility (mole fraction) (in isopropanol, 303.15 K): 0.00285
solubility (mole fraction) (in isopropanol, 308.15 K): 0.00319
solubility (mole fraction) (in isopropanol, 313.15 K): 0.00356
solubility (mole fraction) (in isopropanol, 318.15 K): 0.00398
solubility (mole fraction) (in isopropanol, 323.15 K): 0.00444
solubility (mole fraction) (in m-xylene, 278.15 K): 0.00015
solubility (mole fraction) (in m-xylene, 283.15 K): 0.00018
solubility (mole fraction) (in m-xylene, 288.15 K): 0.00022
solubility (mole fraction) (in m-xylene, 293.15 K): 0.00026
solubility (mole fraction) (in m-xylene, 298.15 K): 0.00031
solubility (mole fraction) (in m-xylene, 303.15 K): 0.00036
solubility (mole fraction) (in m-xylene, 308.15 K): 0.00042
solubility (mole fraction) (in m-xylene, 313.15 K): 0.00049
solubility (mole fraction) (in m-xylene, 318.15 K): 0.00057
solubility (mole fraction) (in m-xylene, 323.15 K): 0.00066
solubility (mole fraction) (in methanol, 278.15 K): 0.00029
solubility (mole fraction) (in methanol, 283.15 K): 0.00033
solubility (mole fraction) (in methanol, 288.15 K): 0.00038
solubility (mole fraction) (in methanol, 293.15 K): 0.00044
solubility (mole fraction) (in methanol, 298.15 K): 0.0005
solubility (mole fraction) (in methanol, 303.15 K): 0.00057
solubility (mole fraction) (in methanol, 308.15 K): 0.00066
solubility (mole fraction) (in methanol, 313.15 K): 0.00075
solubility (mole fraction) (in methanol, 318.15 K): 0.00087
solubility (mole fraction) (in methanol, 323.15 K): 0.001
solubility (mole fraction) (in n-butanol, 278.15 K): 0.00049
solubility (mole fraction) (in n-butanol, 283.15 K): 0.00057
solubility (mole fraction) (in n-butanol, 288.15 K): 0.00066
solubility (mole fraction) (in n-butanol, 293.15 K): 0.00075
solubility (mole fraction) (in n-butanol, 298.15 K): 0.00086
solubility (mole fraction) (in n-butanol, 303.15 K): 0.00099
solubility (mole fraction) (in n-butanol, 308.15 K): 0.00114
solubility (mole fraction) (in n-butanol, 313.15 K): 0.00131
solubility (mole fraction) (in n-butanol, 318.15 K): 0.00151
solubility (mole fraction) (in n-butanol, 323.15 K): 0.00175
solubility (mole fraction) (in n-heptane, 278.15 K): 5e-05
solubility (mole fraction) (in n-heptane, 283.15 K): 9e-05
solubility (mole fraction) (in n-heptane, 288.15 K): 0.00013
solubility (mole fraction) (in n-heptane, 293.15 K): 0.00017
solubility (mole fraction) (in n-heptane, 298.15 K): 0.00022
solubility (mole fraction) (in n-heptane, 303.15 K): 0.00027
solubility (mole fraction) (in n-heptane, 308.15 K): 0.00032
solubility (mole fraction) (in n-heptane, 313.15 K): 0.00038
solubility (mole fraction) (in n-heptane, 318.15 K): 0.00044
solubility (mole fraction) (in n-heptane, 323.15 K): 0.00052
solubility (mole fraction) (in n-hexane, 278.15 K): 7e-05
solubility (mole fraction) (in n-hexane, 283.15 K): 0.00011
solubility (mole fraction) (in n-hexane, 288.15 K): 0.00015
solubility (mole fraction) (in n-hexane, 293.15 K): 0.00019
solubility (mole fraction) (in n-hexane, 298.15 K): 0.00024
solubility (mole fraction) (in n-hexane, 303.15 K): 0.00029
solubility (mole fraction) (in n-hexane, 308.15 K): 0.00035
solubility (mole fraction) (in n-hexane, 313.15 K): 0.00041
solubility (mole fraction) (in n-hexane, 318.15 K): 0.00048
solubility (mole fraction) (in n-hexane, 323.15 K): 0.00057
